Data from patent US20230194472A1, “MICRORNA ANALYSIS USING TUNNELING CURRENT” (Osaka University, priority 2019, published 2023).

Experiments:
[1] = test system: 5-fluorouracil (5-FU) resistant strain of colon cancer cell strain DLD-1; assay: IC50 measurement on 5-fluorouracil resistant strain derived from DLD-1; format: cell-based; settings: Homo sapiens; DLD-1 maintained 6 months or longer in the presence of 5-fluorouracil; confirmed resistant strain; read-out: IC50 with respect to 5-fluorouracil for the cultured cells
[2] = test system: trifluridine (FTD) resistant strain of colon cancer cell strain DLD-1; assay: IC50 measurement on trifluridine resistant strain derived from DLD-1; format: cell-based; settings: Homo sapiens; DLD-1 maintained 6 months or longer in the presence of trifluridine; confirmed resistant strain; read-out: IC50 with respect to trifluridine for the cultured cells
Experimental: Quantitative analysis of a microRNA was performed by tunneling current measurement. Colon cancer cell strain (DLD1) and 5-fluorouracil (5-FU) or trifluridine (FTD) resistant strains were used as samples.
Cancer cell strain DLD-1 obtained from a cell bank was maintained in a culture for 6 months or longer in the presence of trifluridine or 5-fluorouracil (Aldrich-Sigma) (about […]). The maintained culture was passaged about twice a week to maintain 60 to 80% confluence at 37° C. in a
DMEM medium supplemented with 10% serum on a plastic dish.

Compound	IC50 [1] [µM]	IC50 [2] [µM]
O=c1[nH]cc(F)c(=O)[nH]1 [5-fluorouracil]	300	–
O=c1[nH]c(=O)n([C@H]2C[C@H](O)[C@@H](CO)O2)cc1C(F)(F)F [trifluridine]	–	300
